Columns and labels:
Assay in all cases: relative viability (nuclei count vs DMSO), 5 days (fraction); higher = more cells survive
NCI-H322M = tested on: NCI-H322M
In short: (§1)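 The day after seeding in 1536-well plates, lung cancer cell lines were treated by pin tool with a single drug, or with a fixed anchor-drug dose together with five library-drug doses (not always all listed) in √10 steps. After 5 days, a combined fix-and-stain solution (final 0.05% Triton X-100, 1% formaldehyde, 1 ug/ml Hoechst) was added. Nuclei counted on 4× images gave relative viability as treated counts over vehicle counts, reported as the median of duplicate plates.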

NCI-H2170 = tested on: NCI-H2170
In short: as §1

NCI-H441 = tested on: NCI-H441
In short: as §1

NCI-H1650 = tested on: NCI-H1650
In short: as §1

NCI-H2023 = tested on: NCI-H2023
In short: as §1

201T = tested on: 201T
In short: as §1

EPLC-272H = tested on: EPLC-272H
In short: as §1

HCC-15 = tested on: HCC-15
In short: as §1

NCI-H2347 = tested on: NCI-H2347
In short: as §1

SW 900 = tested on: SW 900
In short: as §1

COR-L23 = tested on: COR-L23
In short: as §1

NCI-H647 = tested on: NCI-H647
In short: as §1

H3255 = tested on: H3255
In short: as §1

NCI-H520 = tested on: NCI-H520
In short: as §1

UMC-11 = tested on: UMC-11
In short: as §1

NCI-H2405 = tested on: NCI-H2405
In short: as §1

LOU-NH91 = tested on: LOU-NH91
In short: as §1

NCI-H1734 = tested on: NCI-H1734
In short: as §1

NCI-H1793 = tested on: NCI-H1793
In short: as §1

PC-14 = tested on: PC-14
In short: as §1

NCI-H3122 = tested on: NCI-H3122
In short: as §1

Work on `CC(=O)O[C@@]12CO[C@@H]1C[C@H](O)[C@@]1(C)C(=O)[C@H](O)C3=C(C)[C@@H](OC(=O)[C@H](O)[C@@H](NC(=O)OC(C)(C)C)c4ccccc4)C[C@@](O)([C@@H](OC(=O)c4ccccc4)[C@H]21)C3(C)C` [Docetaxel] + CC(=O)Nc1cccc(-n2c(=O)n(C3CC3)c(=O)c3c(Nc4ccc(I)cc4F)n(C)c(=O)c(C)c32)c1 [Trametinib] (partner 0.02 µM) yielded a relative viability (NCI-H322M; first compound 0.0002 µM) of 0.554, a relative viability (NCI-H322M; first compound 0.000632 µM) of 0.507 and a relative viability (NCI-H322M; first compound 0.002 µM) of 0.441. The relative viability (NCI-H322M; first compound 0.006325 µM) was 0.524, the relative viability (NCI-H322M; first compound 0.02 µM) was 0.441 and the relative viability (NCI-H2170; first compound 0.0002 µM) was 0.887. For the same molecule, the relative viability (NCI-H2170; first compound 0.000632 µM) was 0.848, the relative viability (NCI-H2170; first compound 0.002 µM) was 0.746 and the relative viability (NCI-H2170; first compound 0.006325 µM) was 0.222. For the same molecule, the relative viability (NCI-H2170; first compound 0.02 µM) was 0.167, the relative viability (NCI-H441; first compound 0.0002 µM) was 0.389 and the relative viability (NCI-H441; first compound 0.000632 µM) was 0.255. The relative viability (NCI-H441; first compound 0.002 µM) was 0.202, the relative viability (NCI-H441; first compound 0.006325 µM) was 0.187 and the relative viability (NCI-H441; first compound 0.02 µM) was 0.144. The relative viability (NCI-H1650; first compound 0.0002 µM) was 0.392, the relative viability (NCI-H1650; first compound 0.000632 µM) was 0.4 and the relative viability (NCI-H1650; first compound 0.002 µM) was 0.217. For the same molecule, the relative viability (NCI-H1650; first compound 0.006325 µM) was 0.107, the relative viability (NCI-H2023; first compound 0.0002 µM) was 0.498 and the relative viability (NCI-H2023; first compound 0.000632 µM) was 0.521. It also gave a relative viability (NCI-H2023; first compound 0.002 µM) of 0.141, a relative viability (NCI-H2023; first compound 0.006325 µM) of 0.127 and a relative viability (NCI-H2023; first compound 0.02 µM) of 0.0628. It also gave a relative viability (201T; first compound 0.0002 µM) of 0.7, a relative viability (201T; first compound 0.000632 µM) of 0.713 and a relative viability (201T; first compound 0.002 µM) of 0.644. It also gave a relative viability (201T; first compound 0.006325 µM) of 0.498, a relative viability (201T; first compound 0.02 µM) of 0.366 and a relative viability (EPLC-272H; first compound 0.0002 µM) of 0.32. For the same molecule, the relative viability (EPLC-272H; first compound 0.000632 µM) was 0.276, the relative viability (EPLC-272H; first compound 0.006325 µM) was 0.136 and the relative viability (EPLC-272H; first compound 0.02 µM) was 0.0951. It also gave a relative viability (HCC-15; first compound 0.0002 µM) of 0.401, a relative viability (HCC-15; first compound 0.000632 µM) of 0.313 and a relative viability (HCC-15; first compound 0.002 µM) of 0.193. It also gave a relative viability (HCC-15; first compound 0.006325 µM) of 0.247, a relative viability (HCC-15; first compound 0.02 µM) of 0.159 and a relative viability (NCI-H2347; first compound 0.0002 µM) of 0.243. It also gave a relative viability (NCI-H2347; first compound 0.000632 µM) of 0.349, a relative viability (NCI-H2347; first compound 0.002 µM) of 0.262 and a relative viability (NCI-H2347; first compound 0.006325 µM) of 0.271. For the same molecule, the relative viability (NCI-H2347; first compound 0.02 µM) was 0.229, the relative viability (SW 900; first compound 0.0002 µM) was 0.802 and the relative viability (SW 900; first compound 0.000632 µM) was 0.287. The relative viability (SW 900; first compound 0.002 µM) was 0.232, the relative viability (SW 900; first compound 0.02 µM) was 0.163 and the relative viability (COR-L23; first compound 0.0002 µM) was 0.528. It also gave a relative viability (COR-L23; first compound 0.000632 µM) of 0.579, a relative viability (COR-L23; first compound 0.002 µM) of 0.223 and a relative viability (COR-L23; first compound 0.006325 µM) of 0.155. The relative viability (COR-L23; first compound 0.02 µM) was 0.0909, the relative viability (NCI-H647; first compound 0.0002 µM) was 0.331 and the relative viability (NCI-H647; first compound 0.000632 µM) was 0.361. For the same molecule, the relative viability (NCI-H647; first compound 0.002 µM) was 0.178, the relative viability (NCI-H647; first compound 0.006325 µM) was 0.118 and the relative viability (NCI-H647; first compound 0.02 µM) was 0.0816. The relative viability (H3255; first compound 0.0002 µM) was 0.554, the relative viability (H3255; first compound 0.000632 µM) was 0.635 and the relative viability (H3255; first compound 0.002 µM) was 0.52. It also gave a relative viability (H3255; first compound 0.006325 µM) of 0.361, a relative viability (H3255; first compound 0.02 µM) of 0.303 and a relative viability (NCI-H520; first compound 0.0002 µM) of 0.565. For the same molecule, the relative viability (NCI-H520; first compound 0.000632 µM) was 0.711, the relative viability (NCI-H520; first compound 0.002 µM) was 0.243 and the relative viability (NCI-H520; first compound 0.006325 µM) was 0.206. For the same molecule, the relative viability (NCI-H520; first compound 0.02 µM) was 0.119, the relative viability (UMC-11; first compound 0.0002 µM) was 0.62 and the relative viability (UMC-11; first compound 0.000632 µM) was 0.788. It also gave a relative viability (UMC-11; first compound 0.002 µM) of 0.358, a relative viability (UMC-11; first compound 0.006325 µM) of 0.216 and a relative viability (UMC-11; first compound 0.02 µM) of 0.147. The relative viability (NCI-H2405; first compound 0.0002 µM) was 0.597, the relative viability (NCI-H2405; first compound 0.000632 µM) was 0.618 and the relative viability (NCI-H2405; first compound 0.002 µM) was 0.531. The relative viability (NCI-H2405; first compound 0.006325 µM) was 0.456, the relative viability (NCI-H2405; first compound 0.02 µM) was 0.266 and the relative viability (LOU-NH91; first compound 0.0002 µM) was 0.766. For the same molecule, the relative viability (LOU-NH91; first compound 0.000632 µM) was 0.783, the relative viability (LOU-NH91; first compound 0.002 µM) was 0.607 and the relative viability (LOU-NH91; first compound 0.006325 µM) was 0.449. The relative viability (LOU-NH91; first compound 0.02 µM) was 0.354, the relative viability (NCI-H1734; first compound 0.0002 µM) was 0.615 and the relative viability (NCI-H1734; first compound 0.000632 µM) was 0.54. It also gave a relative viability (NCI-H1734; first compound 0.002 µM) of 0.351, a relative viability (NCI-H1734; first compound 0.006325 µM) of 0.337 and a relative viability (NCI-H1734; first compound 0.02 µM) of 0.198. It also gave a relative viability (NCI-H1793; first compound 0.0002 µM) of 0.378, a relative viability (NCI-H1793; first compound 0.000632 µM) of 0.433 and a relative viability (NCI-H1793; first compound 0.002 µM) of 0.384. It also gave a relative viability (NCI-H1793; first compound 0.006325 µM) of 0.316, a relative viability (NCI-H1793; first compound 0.02 µM) of 0.272 and a relative viability (PC-14; first compound 0.0002 µM) of 0.648. The relative viability (PC-14; first compound 0.000632 µM) was 0.679, the relative viability (PC-14; first compound 0.002 µM) was 0.0905 and the relative viability (PC-14; first compound 0.006325 µM) was 0.0687. It also gave a relative viability (PC-14; first compound 0.02 µM) of 0.0257, a relative viability (NCI-H3122; first compound 0.0002 µM) of 0.219 and a relative viability (NCI-H3122; first compound 0.000632 µM) of 0.215. It also gave a relative viability (NCI-H3122; first compound 0.002 µM) of 0.194, a relative viability (NCI-H3122; first compound 0.006325 µM) of 0.194 and a relative viability (NCI-H3122; first compound 0.02 µM) of 0.128.

Reference: the supplement of paper PMC10307832
